{
  "source": "patent US20160223554A1",
  "about": "“METHODS FOR DIAGNOSIS, PROGNOSIS AND METHODS OF TREATMENT” (priority 2011, published 2016)",
  "key": {"[1]": {"system": "AML leukemic cells", "test": "Apotosis/Cytostasis Arm with kinase inhibitors (Example 13)", "type": "cell-based, human", "details": "two samples with greatest SCF and G-CSF signaling response; 1 μM; 48-hr incubation", "description": "All results were compared with results from bone marrow samples from healthy donors (N=6)."}, "[2]": {"details": "cited from earlier work"}, "[3]": {"system": "AML blasts", "test": "SCNP functional apoptosis and DNA damage response assay in AML PBMC (Examples 2, 6, 8, 10)", "type": "cell-based, human", "details": "with staurosporine or etoposide", "method": "A viable cell will be Aqua negative and PARP negative and a measure of cell death is PARP and/or Aqua positivity.\n“Apoptosis”=% of PARP^−Aqua^−unstim−% of PARP^−Aqua^−Drug.\nFunctional assays were performed as previously described. See Irish, et al., Cell 2004; 118:217-228.\nThe median fluorescence intensity (MFI) was computed for each node from the fluorescence intensity levels for the cells in the myeloid population. The MFI values were then used to compute a variety of metrics by comparing them to baseline or background values, including the unmodulated condition, cellular autofluorescence and antibody isotype controls. The following metrics were computed: • 1. Basal MFI (“Basal”)=log2(MFIUnmodulated Stained)−log2(MFIGated Unstained (Autofluoresence)), designed to measure the basal levels of a certain protein under unmodulated conditions. • 2. Fold Change MFI (“Fold”)=log2(MFIModulated Stained)−log2(MFIUnmodulated Stained), a measure of the change in the activation state of a protein under modulated conditions. • 3. Total Phospho MFI (“TotalPhospho”)=log2(MFIModulated Stained)−log2(MFIGated Unstained (Autofluorescence)), a measure of the total levels of a protein under modulated conditions. • 4. Relative Protein Expression (“Rel. Expression”)=log2(MFIstain)−log2(MFIControl), a measure of the levels of surface marker staining relative to control antibody staining • 5. […]"}},
  "note": "Read-outs that look alike come from different tables or passages of the source. Residues, ends and D or L forms follow the SMILES beside them. *: point of attachment. Cbz = O=C(OCc1ccccc1)*; CH2F = FC*",
  "data": [
    {"smiles": "C[C@@H]1CCN(C(=O)CC#N)C[C@@H]1N(C)c1ncnc2[nH]ccc12", "note": "[CP-690,550]", "values": [
      {"measurement": "sensitivity to kinase inhibitor, cytostasis readouts", "setting": "[1]", "value": "most sensitive"}
    ]},
    {"smiles": "Nc1ccn([C@@H]2O[C@H](CO)[C@@H](O)[C@@H]2O)c(=O)n1", "note": "[Cytarabine, 1β-arabinofuranosylcytosine]", "values": [
      {"measurement": "peak plasma concentration", "setting": "[2]; high dose Cytarabine, 3 g/m2", "value": 2, "unit": "µM"},
      {"measurement": "peak plasma concentration", "setting": "[2]; standard dose of Cytarabine, 100 mg/m2", "value": "approximately 40 nM"}
    ]},
    {"smiles": "COC(=O)CC(NC(=O)C(C)NC(=O)C(NC(=O)OCc1ccccc1)C(C)C)C(=O)CF", "note": "(stereo not drawn) [Z-VAD, Benzyloxycarbonyl-Val-Ala-Asp (OMe) fluoromethylketone] (Cbz-Val-Ala-Asp(OMe)-CH2F; configuration not given here)", "values": [
      {"measurement": "effect of co-incubation with pan-Caspase inhibitor on Cleaved Caspase-3 and PARP", "setting": "[3]; samples 0341, 0521", "value": "inhibited cleavage of caspase 3 and PARP to near completion"},
      {"measurement": "effect of co-incubation with pan-Caspase inhibitor on PARP cleavage", "setting": "[3]; samples 8303, 8402", "value": "only partially inhibited"}
    ]}
  ]
}
